This note sets out measurements from US12612388B2, “Receptor-interacting protein 1 inhibitors including piperazine heterocyclic amide ureas” (SIRONAX LTD., priority 2020, dated 2026).

For one assay, the system named is HT-29 cells. The assay is described as follows: Cellular RIP1 inhibitory activity: necroptosis of HT-29 cells induced by TNF-α/SMAC mimetic/zVAD-FMK, CellTiter-Glo viability. The following applies: Homo sapiens, HT-29, 20 h, read-out: EC50 (Cell activity; Necrosis or Necroptosis Inhibitory Activity). It counts as cell-based. The method, boiled down:
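HT-29 cells (~5,000/well) in FBS-free McCoy's 5A were driven into necroptosis with TNF-α (10 ng/ml), SMAC mimetic (6 μM) and zVAD-FMK (10 μM) alongside 10-point 1:3 compound dilutions for 20 h at 37 °C. Viability measured by CellTiter-Glo luminescence; geometric mean EC50 from duplicate dose-responses.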
(In general: Cellular ATP, detected with luciferase, serves as a proxy for viable cell number.)
In the case of `O=C(c1nc(N2CCN(C(=O)N3N=CC[C@H]3c3cc(F)cc(F)c3)CC2)ncc1F)N1CCC1` [Compound 7, (S)-azetidin-1-yl(2-(4-(5-(3,5-difluorophenyl)-4,5-dihydro-1H-pyrazole-1-carbonyl)piperazin-1-yl)-5-fluoropyrimidin-4-yl)methanone], the EC50 is 0.0001 to 0.1 µM.

Take `CCNC(=O)c1ccnc(N2CCN(C(=O)N3N=CC[C@H]3c3cc(F)cc(F)c3)CC2)n1` [Compound 35, (S)-2-(4-(5-(3,5-difluorophenyl)-4,5-dihydro-1H-pyrazole-1-carbonyl)piperazin-1-yl)-N-ethylpyrimidine-4-carboxamide]: the EC50 lay within 0.0001 to 0.1 µM.

The same assay, now with this note: Homo sapiens; HT-29 cells; TNF-α 10 ng/ml, SMAC mimetic 6 μM, zVAD-FMK 10 μM; 20 hours; geometric mean, 10 points, duplicates; read-out: EC50 (Cell activity; Necrosis or Necroptosis Inhibitory Activity).
With `CC1(O)CN(C(=O)c2nc(N3CCN(C(=O)N4N=CC[C@H]4c4cc(F)cc(F)c4)CC3)ncc2F)C1` [Compound 50, (S)-(5-(3,5-difluorophenyl)-4,5-dihydro-1H-pyrazol-1-yl)(4-(5-fluoro-4-(3-hydroxy-3-methylazetidine-1-carbonyl)pyrimidin-2-yl)piperazin-1-yl)methanone], the EC50 was 0.0001 to 0.1 µM. For `O=C(O)c1nc(N2CCN(C(=O)N3N=CC[C@H]3c3cc(F)cc(F)c3)CC2)ncc1F` [Compound 1, (S)-2-(4-(5-(3,5-difluorophenyl)-4,5-dihydro-1H-pyrazole-1-carbonyl)piperazin-1-yl)-5-fluoropyrimidine-4-carboxylic acid], the EC50 lay in the range of 1 to 10 µM.

With `NC(=O)[C@@H]1CCN(C(=O)c2nc(N3CCN(C(=O)N4N=CC[C@H]4c4cc(F)cc(F)c4)CC3)ncc2F)C1` [Compound 27, (R)-1-(2-(4-((S)-5-(3,5-difluorophenyl)-4,5-dihydro-1H-pyrazole-1-carbonyl)piperazin-1-yl)-5-fluoropyrimidine-4-carbonyl)pyrrolidine-3-carboxamide], the EC50 lay within 0.0001 to 0.1 µM.

For `CN(C)C(=O)c1nc(N2CCN(C(=O)N3N=CC[C@H]3c3cc(F)cc(F)c3)CC2)ncc1F` [Compound 5, 2-(4-(5-(3,5-difluorophenyl)-4,5-dihydro-1H-pyrazole-1-carbonyl)piperazin-1-yl)-5-fluoro-N,N-dimethylpyrimidine-4-carboxamide], the EC50 was 0.0001 to 0.1 µM.

With `CONC(=O)c1nc(N2CCN(C(=O)N3N=CC[C@H]3c3cc(F)cc(F)c3)CC2)ncc1F` [Compound 3, (S)-2-(4-(5-(3,5-difluorophenyl)-4,5-dihydro-1H-pyrazole-1-carbonyl)piperazin-1-yl)-5-fluoro-N-methoxypyrimidine-4-carboxamide], the EC50 fell in the range of 0.1 to 1 µM.

By EC50 is commonly meant the midpoint of the concentration-response curve.
